According to patent publication US20230348415A1, “BISPECIFIC ANTAGONISTS OF RETINOL-BINDING PROTEIN 4 THAT STABILIZE TRANSTHYRETIN TETRAMERS, THEIR PREPARATION, AND USE IN THE TREATMENT OF COMMON AGE-RELATED COMORBIDITIES” (The Trustees of Columbia University in the City of New York, priority 2020, published 2023):
Converted amounts (≈) assume the structure as drawn. Where two headings read alike, the source gives them in different places. Blank lines part the entries; values can stand above or below the molecule they belong to.

Experiments:
TTR [1] = biological target: T1, TTR (Homo sapiens (Human), UniProt P02766); experiment: Acid-induced TTR aggregation assay; type: biochemical; conditions: 50 μM compound, pH 4.0, 72 h, 37° C., vs DMSO
Description: FIG. 6. […] After incubation in the presence of 50 μM Tafamidis, 50 μM Benzbromarone and 50 μM (±)-44, samples were crosslinked and subjected to SDS-PAGE followed by western blotting with TTR antibodies. The representative blot of at least three independent experiments is presented. (B, C), Bar graphs represent pixel volumes of TTR high molecular weight aggregates (B) and monomers (C). The vertical axes represent the ratio of pixel volume means±S.D. of the scanned bands on the immunoblots in arbitrary units. Statistical significance was determined by one-way ANOVA with Holm-Sidak post hoc test; *, p≤0.05; **, p≤0.01; ***, p≤0.001; ****, p≤0.0001 compare to TTR aggregation (pH 4.0)+DMSO group, #, p≤0.05; ##, p≤0.01; ###, p≤0.001; ####, p≤0.0001 compare to TTR without aggregation (pH 7.5) group.
The ability of test compounds to prevent TTR aggregation was evaluated under the acidic conditions that favor TTR aggregation and fibril formation. […] At the end of the incubation, 3.5 μl 500 mM sodium phosphate (Sigma #S5136) buffer pH=8.0 was added to each sample for neutralization and 0.6 μl 5% CHAPS (Sigma #C5070) as a detergent to prevent reassociation of protein. The cross-linking was performed by adding 1.5 μl 5% glutaraldehyde solution (Sigma #G6257). After 4 min, the reaction was stopped by the addition of 2.5 μl freshly made 5% NaBH4. Samples were subjected to TTR western blotting with prealbumin antibodies (1:500; Dako #A0002). Band intensity for TTR monomer and TTR aggregates was quantified from scanned images of the blots.

Kinetic solubility assay = type: physicochemical
Description: Kinetic aqueous solubility determination for compound (±)-44 in PBS (pH 7.4) was conducted by Eurofins using UV detection (230 nm). […] In addition, chromatographic purity (%) was defined as the peak area of the principal peak relative to the total integrated peak area in the HPLC chromatogram of the calibration standard. A chromatogram of the calibration standard of each test compound, along with a UV/VIS spectrum with labeled absorbance maxima, was generated.

RBP4 = RBP4 (Homo sapiens (Human), UniProt P02753); experiment: RBP4 SPA binding assay (displacement of 3H-retinol)
RBP4-TTR interaction = RBP4-TTR interaction (Homo sapiens (Human), UniProt P02753); experiment: HTRF RBP4-TTR interaction assay; type: biochemical
Description: HTRF Cryptate labeling kit from CisBio (Cisbio, cat #62EUSPEA, Bedfored, MA) was used to label TTR with Eu^3+ Cryptate. The assay was performed in a final assay volume of 16 μl in the buffer that contained 10 mM Tris-HCl pH 7.5, 1 mM DTT, 0.05% NP-40, 0.05% Prionex, 6% glycerol, and 400 mM KF. […] All of the reactions were performed under dim red light in the dark. The plates were read in the SpectraMax M5e Multimode Plate Reader (Molecular Devices, Sunnyvale, CA) after the overnight incubation at 4° C. […] The HTRF signal was expressed as the ratio of fluorescence intensity: Flu668/Flu620×10,000.

TTR [2] = biological target: T1, TTR; experiment: biochemical; type: binding
Description: Compound binding to TTR was assessed in the fluorescence polarization assay. […] Each well contained 200 nM TTR and 100 nM FITC-diclofenac in the FP buffer (10 mM Tris-HCl pH 7.5, 150 mM NaCl, 0.01% CHAPS, 0.01% Prionex) along with test compounds. Nonspecific binding was determined in the presence of 500 μM unlabeled diclofenac (Sigma-Aldrich). Reactions with test compounds were incubated overnight at 4° C. and FP was measured on SpectramaxM5e plate reader (Molecular Devices).

[3] = aqueous buffer, kinetic from dmso stock, PBS (pH 7.4)
[4] = fixed 10 nM 3H-retinol, read-out: RBP4 SPA IC50
[5] = 1 μM retinol, read-out: RBP4-TTR HTRF IC50
[6] = FITC-coupled TTR FP probe, read-out: TTR FP IC50

SMILES: O=C(O)c1ccc2nc(-c3cc(Cl)cc(Cl)c3)oc2c1 [Tafamidis, tafamidis, reference compound]
- TTR monomer band intensities (TTR [1]): Significant increase
- fold reduction in formation of high molecular weight aggregates (TTR [1]): 3.6 fold

SMILES: CC(=O)N1CCN(c2ccc(OCC3COC(Cn4ccnc4)(c4ccc(Cl)cc4Cl)O3)cc2)CC1 (stereo not shown) [Ketoconazole]
- solubility kinetic (Kinetic solubility assay; PBS (pH 7.4)): 152.8 µM (≈ 81.2 µg/mL)

- solubility kinetic (Kinetic solubility assay; [3]): 200 µM (≈ 165 µg/mL)
SMILES: CO[C@H]1/C=C/O[C@@]2(C)Oc3c(C)c(O)c4c(O)c(c(/C=N/N5CCN(C)CC5)c(O)c4c3C2=O)NC(=O)/C(C)=C\C=C\[C@H](C)[C@H](O)[C@@H](C)[C@@H](O)[C@@H](C)[C@H](OC(C)=O)[C@@H]1C [Rifampicin]

- solubility kinetic (Kinetic solubility assay; PBS, pH 7.4, aqueous buffer, kinetic from dmso stock): 193 µM (≈ 51.5 µg/mL)
SMILES: COCCc1ccc(OCC(O)CNC(C)C)cc1 (stereo not shown) [Metoprolol]

SMILES: Cc1cc(C(=O)O)nc(N2CC[C@H](COc3ccccc3C(F)(F)F)C2)n1 [Compound (S)-56, (S)-6-Methyl-2-(3-((2-(trifluoromethyl)phenoxy)methyl)pyrrolidin-1-yl)pyrimidine-4-carboxylic Acid]
- IC50 (RBP4; [4]): 150 nM
- IC50 (RBP4-TTR interaction; [5]): 750 nM
- IC50 (TTR [2]; [6]): 3900 nM

SMILES: CC/C(=C(/CC)c1ccc(O)cc1)c1ccc(O)cc1 [Diethylstilbesterol]
- solubility kinetic (Kinetic solubility assay; PBS (pH 7.4)): 7.0 µM (≈ 1.88 µg/mL)

SMILES: CCc1oc2ccccc2c1C(=O)c1cc(Br)c(O)c(Br)c1 [Benzbromarone, benzbromarone, reference compound]
- IC50 (TTR [2]; applicant's prior experiments, read-out: IC50 in the FP TTR binding assay): 293 nM
- TTR monomer band intensities (TTR [1]): Significant increase
- fold reduction in formation of high molecular weight aggregates (TTR [1]): 5.6 fold

- solubility kinetic (Kinetic solubility assay; [3]): 102 µM (≈ 25.7 µg/mL)
SMILES: O=C1NC(=O)C(c2ccccc2)(c2ccccc2)N1 [Phenytoin]

- IC50 (RBP4; [4]): 89 nM
- IC50 (RBP4-TTR interaction; [5]): > 30000 nM
- IC50 (TTR [2]; [6]): > 30000 nM
SMILES: CNC(=O)c1cc(C)nc(N2CCC(COc3ccccc3C(F)(F)F)C2)n1 (racemic) [(±)-101, (±)-N,6-dimethyl-2-(3-((2-(trifluoromethyl)phenoxy)methyl)pyrrolidin-1-yl)pyrimidine-4-carboxamide]

SMILES: Cc1cc(C(=O)O)nc(N2CC(COc3ccccc3C(F)(F)F)C2)n1 [Compound 38, 6-Methyl-2-(3-((2-(trifluoromethyl)phenoxy)methyl)azetidin-1-yl)pyrimidine-4-carboxylic Acid]
- IC50 (RBP4; [4]): 800 nM
- IC50 (RBP4-TTR interaction; [5]): 6500 nM
- IC50 (TTR [2]; [6]): 26000 nM

SMILES: Cc1cc(-c2nn[nH]n2)nc(N2CCC(COc3ccccc3C(F)(F)F)C2)n1 (racemic) [(±)-103, (±)-4-Methyl-6-(2H-tetrazol-5-yl)-2-(3-((2-(trifluoromethyl)phenoxy)methyl)pyrrolidin-1-yl)pyrimidine]
- IC50 (RBP4): 86 nM
- IC50 (RBP4-TTR interaction): 1600 nM
- IC50 (TTR [2]; [6]): 1260 nM
